Source: PMC8449129, “Single tracer-based protocol for broad-spectrum kinase profiling in live cells with NanoBRET” (STAR Protocols, 2021)

Tests used:
Assay in all cases: cell-based
Parameters in all cases: NanoBRET live-cell target engagement; % occupancy from displacement of tracer K10 on NanoLuc-kinase fusions, mean n=3
Details in all cases: HEK293, read-out: % inhibition
FYN = FYN (Homo sapiens, UniProt P06241)
Summary of the method: (§1)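 Live-cell NanoBRET target engagement: cells expressing kinase–NanoLuc fusion with tracer treated with compound 2 h at 37 °C, 5% CO2. BRET read from donor (450 nm) and acceptor (610/630 nm) emission with 20 μM extracellular NanoLuc inhibitor; % occupancy calculated relative to tracer+DMSO and zero-BRET controls.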

NLK = NLK (Homo sapiens, UniProt Q9UBE8)
Summary of the method: as §1

STK17B = STK17B (Homo sapiens, UniProt O94768)
Chain of STK17B (O94768 whole entry): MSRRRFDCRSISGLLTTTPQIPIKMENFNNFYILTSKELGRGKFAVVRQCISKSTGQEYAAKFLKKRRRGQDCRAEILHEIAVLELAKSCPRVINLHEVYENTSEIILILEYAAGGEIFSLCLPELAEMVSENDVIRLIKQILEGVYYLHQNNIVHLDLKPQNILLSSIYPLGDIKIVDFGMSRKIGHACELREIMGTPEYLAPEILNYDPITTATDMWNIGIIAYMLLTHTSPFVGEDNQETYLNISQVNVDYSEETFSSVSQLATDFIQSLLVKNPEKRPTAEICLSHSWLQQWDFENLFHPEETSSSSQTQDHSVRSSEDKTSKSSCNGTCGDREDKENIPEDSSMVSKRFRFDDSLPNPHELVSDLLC
Summary of the method: as §1

ERN2 = ERN2 (Homo sapiens, UniProt Q76MJ5)
Summary of the method: as §1

DAPK2 = DAPK2 (Homo sapiens, UniProt Q9UIK4)
Summary of the method: as §1

MYLK2 = MYLK2 (Homo sapiens, UniProt Q9H1R3)
Summary of the method: as §1

DCLK3 = DCLK3 (Homo sapiens, UniProt Q9C098)
Chain of DCLK3 (Q9C098 whole entry): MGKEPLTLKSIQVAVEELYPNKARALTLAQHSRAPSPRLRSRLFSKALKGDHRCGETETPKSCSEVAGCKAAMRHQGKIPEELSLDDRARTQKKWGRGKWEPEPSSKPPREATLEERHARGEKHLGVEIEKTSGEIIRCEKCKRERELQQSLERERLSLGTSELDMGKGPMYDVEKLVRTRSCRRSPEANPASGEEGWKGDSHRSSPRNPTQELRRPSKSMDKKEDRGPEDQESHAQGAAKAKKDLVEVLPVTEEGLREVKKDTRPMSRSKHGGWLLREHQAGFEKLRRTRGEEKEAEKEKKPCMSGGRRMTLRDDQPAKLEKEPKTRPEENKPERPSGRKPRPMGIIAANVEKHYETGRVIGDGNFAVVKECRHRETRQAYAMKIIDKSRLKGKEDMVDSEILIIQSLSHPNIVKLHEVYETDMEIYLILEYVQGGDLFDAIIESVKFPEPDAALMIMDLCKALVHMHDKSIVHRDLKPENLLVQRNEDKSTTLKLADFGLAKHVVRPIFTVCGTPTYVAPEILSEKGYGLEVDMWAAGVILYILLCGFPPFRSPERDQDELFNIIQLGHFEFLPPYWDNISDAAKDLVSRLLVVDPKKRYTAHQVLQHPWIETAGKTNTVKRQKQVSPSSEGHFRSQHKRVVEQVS
Summary of the method: as §1

MELK = MELK (Homo sapiens, UniProt Q14680)
Chain of MELK (Q14680 whole entry): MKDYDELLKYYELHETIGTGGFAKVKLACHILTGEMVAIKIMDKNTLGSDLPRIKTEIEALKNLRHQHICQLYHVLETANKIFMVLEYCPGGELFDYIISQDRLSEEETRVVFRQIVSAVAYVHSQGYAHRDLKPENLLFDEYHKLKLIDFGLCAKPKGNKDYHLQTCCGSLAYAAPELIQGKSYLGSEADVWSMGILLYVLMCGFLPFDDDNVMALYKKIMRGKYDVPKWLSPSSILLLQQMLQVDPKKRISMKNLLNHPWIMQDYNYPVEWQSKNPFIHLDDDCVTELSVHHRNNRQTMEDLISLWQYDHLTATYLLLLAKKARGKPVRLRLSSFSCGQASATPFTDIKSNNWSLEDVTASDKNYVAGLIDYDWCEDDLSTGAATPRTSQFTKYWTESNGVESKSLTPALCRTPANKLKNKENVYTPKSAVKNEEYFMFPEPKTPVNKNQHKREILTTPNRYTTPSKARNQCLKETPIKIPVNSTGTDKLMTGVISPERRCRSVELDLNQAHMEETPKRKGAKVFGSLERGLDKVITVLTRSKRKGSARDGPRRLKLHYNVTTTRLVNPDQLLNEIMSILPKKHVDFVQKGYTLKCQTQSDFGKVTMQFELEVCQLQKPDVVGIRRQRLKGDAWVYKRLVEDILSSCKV
Summary of the method: as §1

NEK3 = NEK3 (Homo sapiens, UniProt P51956)
Summary of the method: as §1

FGFR2 = FGFR2 (Homo sapiens, UniProt P21802)
Summary of the method: as §1

JAK3 = JAK3 (Homo sapiens, UniProt P52333)
Chain of JAK3 (P52333 whole entry): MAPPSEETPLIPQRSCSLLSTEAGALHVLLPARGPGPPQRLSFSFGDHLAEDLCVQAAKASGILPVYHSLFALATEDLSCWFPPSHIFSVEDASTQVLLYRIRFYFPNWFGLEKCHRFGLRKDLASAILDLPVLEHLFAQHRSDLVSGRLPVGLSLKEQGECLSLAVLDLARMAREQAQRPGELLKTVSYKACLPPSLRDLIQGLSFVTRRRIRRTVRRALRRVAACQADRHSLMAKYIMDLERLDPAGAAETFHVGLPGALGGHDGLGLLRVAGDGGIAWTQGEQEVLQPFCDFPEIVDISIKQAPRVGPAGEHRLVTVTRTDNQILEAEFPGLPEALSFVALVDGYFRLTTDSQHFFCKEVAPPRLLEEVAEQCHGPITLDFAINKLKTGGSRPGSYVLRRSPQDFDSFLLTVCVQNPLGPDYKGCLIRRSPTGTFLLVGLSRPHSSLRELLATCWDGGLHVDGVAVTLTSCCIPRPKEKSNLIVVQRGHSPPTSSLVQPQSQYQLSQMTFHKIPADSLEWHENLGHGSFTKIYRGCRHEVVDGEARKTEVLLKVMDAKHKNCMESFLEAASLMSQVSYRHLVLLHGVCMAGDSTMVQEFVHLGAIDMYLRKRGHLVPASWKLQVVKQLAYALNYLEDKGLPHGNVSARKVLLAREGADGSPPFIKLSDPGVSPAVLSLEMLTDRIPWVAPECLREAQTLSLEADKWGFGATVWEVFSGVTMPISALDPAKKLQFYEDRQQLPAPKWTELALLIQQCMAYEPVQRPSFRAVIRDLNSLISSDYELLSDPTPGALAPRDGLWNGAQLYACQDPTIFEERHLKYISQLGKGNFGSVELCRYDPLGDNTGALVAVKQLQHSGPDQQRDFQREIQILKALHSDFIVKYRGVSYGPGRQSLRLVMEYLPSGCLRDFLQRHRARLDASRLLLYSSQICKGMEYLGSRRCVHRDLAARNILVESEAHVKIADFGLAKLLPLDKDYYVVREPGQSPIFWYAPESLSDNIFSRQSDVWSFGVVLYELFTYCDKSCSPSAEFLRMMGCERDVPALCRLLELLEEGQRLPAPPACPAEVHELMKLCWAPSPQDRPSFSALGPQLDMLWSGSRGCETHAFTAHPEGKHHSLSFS
Summary of the method: as §1

STK16 = STK16 (Homo sapiens, UniProt O75716)
Chain of STK16 (O75716 whole entry): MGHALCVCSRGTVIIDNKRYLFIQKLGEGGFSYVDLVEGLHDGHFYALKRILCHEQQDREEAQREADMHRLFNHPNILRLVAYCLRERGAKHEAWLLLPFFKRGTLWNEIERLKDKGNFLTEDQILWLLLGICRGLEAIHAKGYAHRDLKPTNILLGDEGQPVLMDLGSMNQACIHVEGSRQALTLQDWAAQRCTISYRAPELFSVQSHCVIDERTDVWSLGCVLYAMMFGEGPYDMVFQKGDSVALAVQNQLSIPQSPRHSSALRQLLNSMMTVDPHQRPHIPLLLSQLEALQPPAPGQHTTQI
Summary of the method: as §1

MAPK4 = MAPK4 (Homo sapiens, UniProt P31152)
Summary of the method: as §1

ULK1 = ULK1 (Homo sapiens, UniProt O75385)
Chain of ULK1 (O75385 whole entry): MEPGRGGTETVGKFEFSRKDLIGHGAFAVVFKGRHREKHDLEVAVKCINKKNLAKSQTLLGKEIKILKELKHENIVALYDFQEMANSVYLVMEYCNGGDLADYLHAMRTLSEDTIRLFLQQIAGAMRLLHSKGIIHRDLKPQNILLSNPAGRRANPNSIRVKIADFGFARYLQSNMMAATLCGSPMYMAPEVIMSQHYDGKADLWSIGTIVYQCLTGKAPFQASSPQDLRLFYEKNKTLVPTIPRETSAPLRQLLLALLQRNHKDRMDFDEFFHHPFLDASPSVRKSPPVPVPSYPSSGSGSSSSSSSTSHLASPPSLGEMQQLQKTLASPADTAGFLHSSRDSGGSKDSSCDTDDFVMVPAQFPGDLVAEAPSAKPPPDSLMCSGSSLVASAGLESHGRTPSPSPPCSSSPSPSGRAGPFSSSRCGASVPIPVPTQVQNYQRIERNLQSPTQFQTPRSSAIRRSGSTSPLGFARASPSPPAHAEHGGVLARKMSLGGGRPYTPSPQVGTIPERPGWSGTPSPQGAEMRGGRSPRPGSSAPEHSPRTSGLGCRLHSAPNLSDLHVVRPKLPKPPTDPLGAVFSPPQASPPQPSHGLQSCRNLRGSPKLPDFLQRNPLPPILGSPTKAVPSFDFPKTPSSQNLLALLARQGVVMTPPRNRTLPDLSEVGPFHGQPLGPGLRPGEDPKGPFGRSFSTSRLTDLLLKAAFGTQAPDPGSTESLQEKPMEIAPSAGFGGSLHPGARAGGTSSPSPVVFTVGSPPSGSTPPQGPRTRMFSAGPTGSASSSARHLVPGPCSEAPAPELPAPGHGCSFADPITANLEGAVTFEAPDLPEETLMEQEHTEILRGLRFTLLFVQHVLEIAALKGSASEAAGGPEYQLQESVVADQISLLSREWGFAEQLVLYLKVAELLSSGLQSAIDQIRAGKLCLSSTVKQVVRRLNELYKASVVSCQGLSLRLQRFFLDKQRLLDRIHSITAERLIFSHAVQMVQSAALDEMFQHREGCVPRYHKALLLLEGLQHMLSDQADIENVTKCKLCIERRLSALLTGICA
Summary of the method: as §1

NEK9 = NEK9 (Homo sapiens, UniProt Q8TD19)
Summary of the method: as §1

INSR = INSR (Homo sapiens, UniProt P06213)
Summary of the method: as §1

PTK2 = PTK2 (Homo sapiens, UniProt Q05397)
Summary of the method: as §1

MAP3K12 = MAP3K12 (Homo sapiens, UniProt Q12852)
Chain of MAP3K12 (Q12852 whole entry): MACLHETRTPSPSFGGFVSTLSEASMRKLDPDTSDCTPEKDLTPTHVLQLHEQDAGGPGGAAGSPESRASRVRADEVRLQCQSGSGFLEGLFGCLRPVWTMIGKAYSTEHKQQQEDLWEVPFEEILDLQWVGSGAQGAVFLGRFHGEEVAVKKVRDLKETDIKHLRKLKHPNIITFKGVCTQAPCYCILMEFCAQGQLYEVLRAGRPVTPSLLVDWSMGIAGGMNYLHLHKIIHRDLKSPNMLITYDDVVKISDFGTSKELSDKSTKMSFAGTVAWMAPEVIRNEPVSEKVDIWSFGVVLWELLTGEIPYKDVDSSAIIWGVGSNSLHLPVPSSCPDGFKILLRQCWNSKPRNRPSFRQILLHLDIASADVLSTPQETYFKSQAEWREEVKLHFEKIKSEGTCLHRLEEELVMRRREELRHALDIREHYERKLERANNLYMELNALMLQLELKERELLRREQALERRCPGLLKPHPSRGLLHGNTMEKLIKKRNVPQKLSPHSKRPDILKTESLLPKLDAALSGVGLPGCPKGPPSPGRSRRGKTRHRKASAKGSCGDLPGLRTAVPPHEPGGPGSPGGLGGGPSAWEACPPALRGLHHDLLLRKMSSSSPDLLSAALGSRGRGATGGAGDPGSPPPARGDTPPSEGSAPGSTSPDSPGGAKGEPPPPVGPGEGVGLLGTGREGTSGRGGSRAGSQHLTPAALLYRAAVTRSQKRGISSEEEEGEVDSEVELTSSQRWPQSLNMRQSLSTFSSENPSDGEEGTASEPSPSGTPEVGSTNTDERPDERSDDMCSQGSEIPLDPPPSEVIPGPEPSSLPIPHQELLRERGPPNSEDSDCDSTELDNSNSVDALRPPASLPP
Summary of the method: as §1

inhibition at 1 µM (FYN): -2%
inhibition at 1 µM (NLK): -1%
inhibition at 1 µM (STK17B): 0%
inhibition at 1 µM (ERN2): -9%
inhibition at 1 µM (DAPK2): 3%
inhibition at 1 µM (MYLK2): -16%
inhibition at 1 µM (DCLK3): 0%
inhibition at 1 µM (MELK): -2%
inhibition at 1 µM (NEK3): -2%
inhibition at 1 µM (FGFR2): 10%
inhibition at 1 µM (JAK3): 2%
inhibition at 1 µM (STK16): -13%
inhibition at 1 µM (MAPK4): -12%
inhibition at 1 µM (ULK1): -1%
inhibition at 1 µM (INSR): 20%
inhibition at 1 µM (PTK2): 40%
inhibition at 1 µM (MAP3K12): 12%
SMILES: C[C@@H](Oc1cc(-c2cnn(C3CCNCC3)c2)cnc1N)c1c(Cl)ccc(F)c1Cl [crizotinib]
inhibition at 1 µM (NEK9): 1%
